Experimental data taken from the supplement of paper PMC6045584.
± gives the standard deviation of the averaged measurements.

Assays:
[1] = compound: COc1ccc(-c2cc3c(C)nc(N)nc3n([C@H]3CC[C@H](OCCO)CC3)c2=O)cn1; experiment: surviving fraction relative to DMSO-only wells; higher = less growth inhibition; conditions: exposure time: 5 days
In short: (§1)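 Viability values are CellTiter-Glo luminescence readings, given as surviving fraction against the median of DMSO-only wells. The readings were taken after 10 minutes at room temperature, following five days of continuous exposure to inhibitors at 0.5, 1, 5, 10, 50, 100, 500 and 1000 nM that began 24 hours after log-phase tumour cell lines were seeded at 250–500 cells per well in 384-well plates. Every line was screened three times and kept only if replicate Pearson r >0.7 and median Z' >0.3.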

[2] = compound: Cn1c(=O)n(-c2ccc(C(C)(C)C#N)cc2)c2c3cc(-c4cnc5ccccc5c4)ccc3ncc21 [BEZ-235]; experiment: as above; conditions: exposure time: 5 days
In short: as §1

| Test System | surviving fraction ([1]; 0.5 nM) | surviving fraction ([1]; 1 nM) | surviving fraction ([1]; 5 nM) | surviving fraction ([1]; 10 nM) | surviving fraction ([1]; 50 nM) | surviving fraction ([1]; 100 nM) | surviving fraction ([1]; 500 nM) | surviving fraction ([1]; 1000 nM) | surviving fraction ([2]; 0.5 nM) | surviving fraction ([2]; 1 nM) | surviving fraction ([2]; 5 nM) | surviving fraction ([2]; 10 nM) | surviving fraction ([2]; 50 nM) | surviving fraction ([2]; 100 nM) | surviving fraction ([2]; 500 nM) | surviving fraction ([2]; 1000 nM) |
| --- | --- | --- | --- | --- | --- | --- | --- | --- | --- | --- | --- | --- | --- | --- | --- | --- |
| MDAMB436 BREAST | 0.881 ± 0.036 | 0.856 ± 0.055 | 0.8 ± 0.031 | 0.75 ± 0.051 | 0.582 ± 0.027 | 0.432 ± 0.023 | 0.265 ± 0.016 | 0.2398 ± 0.0015 | 0.94 ± 0.084 | 0.898 ± 0.085 | 0.876 ± 0.078 | 0.852 ± 0.088 | 0.545 ± 0.016 | 0.51 ± 0.047 | 0.392 ± 0.022 | 0.356 ± 0.013 |
| MDAMB453 BREAST | 1.08 ± 0.075 | 1.03 ± 0.078 | 1.05 ± 0.054 | 1.06 ± 0.069 | 0.603 ± 0.051 | 0.312 ± 0.047 | 0.0933 ± 0.0086 | 0.0587 ± 0.016 | 1.05 ± 0.066 | 1.05 ± 0.022 | 1.09 ± 0.015 | 1.05 ± 0.057 | 0.574 ± 0.046 | 0.359 ± 0.025 | 0.197 ± 0.011 | 0.169 ± 0.012 |
| MDAMB468 BREAST | 0.971 ± 0.045 | 0.965 ± 0.12 | 0.989 ± 0.024 | 1 ± 0.078 | 0.857 ± 0.019 | 0.733 ± 0.021 | 0.255 ± 0.019 | 0.0787 ± 0.0084 | 1.08 ± 0.038 | 1.11 ± 0.015 | 1.07 ± 0.06 | 1.13 ± 0.018 | 1.06 ± 0.093 | 0.885 ± 0.05 | 0.366 ± 0.03 | 0.247 ± 0.013 |
| MFM223 BREAST | 1.09 ± 0.086 | 1.1 ± 0.063 | 1.04 ± 0.061 | 0.993 ± 0.079 | 0.674 ± 0.071 | 0.432 ± 0.016 | 0.127 ± 0.012 | 0.0725 ± 0.0048 | 1.12 ± 0.069 | 1.13 ± 0.043 | 1.11 ± 0.06 | 1.15 ± 0.079 | 0.932 ± 0.071 | 0.588 ± 0.018 | 0.206 ± 0.018 | 0.179 ± 0.0092 |
| MG63 BONE | 0.984 ± 0.0072 | 0.97 ± 0.04 | 0.9233 ± 0.009 | 0.833 ± 0.035 | 0.539 ± 0.021 | 0.348 ± 0.011 | 0.137 ± 0.0046 | 0.0953 ± 0.0011 | 1.04 ± 0.071 | 1.03 ± 0.027 | 1.06 ± 0.067 | 1.03 ± 0.052 | 0.582 ± 0.026 | 0.45 ± 0.024 | 0.17 ± 0.014 | 0.143 ± 0.011 |
| MHM BONE | 0.999 ± 0.011 | 0.967 ± 0.013 | 0.99 ± 0.012 | 0.957 ± 0.018 | 0.888 ± 0.029 | 0.823 ± 0.013 | 0.478 ± 0.015 | 0.29 ± 0.0046 | 1.01 ± 0.021 | 0.995 ± 0.02 | 1.025 ± 0.0021 | 1.036 ± 0.0079 | 0.991 ± 0.018 | 0.885 ± 0.028 | 0.427 ± 0.011 | 0.351 ± 0.016 |
| NCIH441 LUNG | 1.03 ± 0.068 | 1.03 ± 0.071 | 1.06 ± 0.064 | 0.966 ± 0.058 | 0.886 ± 0.048 | 0.789 ± 0.028 | 0.425 ± 0.021 | 0.412 ± 0.015 | 1.16 ± 0.081 | 1.11 ± 0.1 | 1.1 ± 0.027 | 1.11 ± 0.11 | 1.21 ± 0.064 | 0.997 ± 0.1 | 0.527 ± 0.027 | 0.356 ± 0.061 |
| NOS1 BONE | 1.13 ± 0.032 | 0.989 ± 0.13 | 1.2 ± 0.16 | 0.96 ± 0.1 | 0.6 ± 0.048 | 0.448 ± 0.029 | 0.158 ± 0.0032 | 0.095 ± 0.015 | 1.09 ± 0.1 | 1.08 ± 0.089 | 1.08 ± 0.085 | 1.08 ± 0.046 | 0.6 ± 0.036 | 0.49 ± 0.11 | 0.206 ± 0.024 | 0.166 ± 0.032 |
| NY BONE | 0.925 ± 0.027 | 0.916 ± 0.038 | 0.909 ± 0.022 | 0.84 ± 0.047 | 0.668 ± 0.029 | 0.602 ± 0.028 | 0.369 ± 0.019 | 0.317 ± 0.0068 | 0.996 ± 0.023 | 0.987 ± 0.018 | 1.02 ± 0.048 | 1.01 ± 0.044 | 0.825 ± 0.04 | 0.769 ± 0.003 | 0.486 ± 0.022 | 0.464 ± 0.036 |
| OS25HAL BONE | 0.95 ± 0.012 | 0.9753 ± 0.0029 | 0.9657 ± 0.0091 | 0.86 ± 0.041 | 0.603 ± 0.042 | 0.35 ± 0.066 | 0.13 ± 0.0092 | 0.0623 ± 0.0049 | 0.995 ± 0.017 | 1.01 ± 0.035 | 0.974 ± 0.031 | 0.965 ± 0.025 | 0.94 ± 0.045 | 0.788 ± 0.04 | 0.25 ± 0.0061 | 0.196 ± 0.018 |
| OSHN BONE | 1.03 ± 0.024 | 1.03 ± 0.035 | 1.02 ± 0.029 | 1.01 ± 0.03 | 1.1 ± 0.0058 | 1.03 ± 0.034 | 0.447 ± 0.016 | 0.267 ± 0.0045 | 1.07 ± 0.033 | 1.09 ± 0.044 | 1.06 ± 0.029 | 1.08 ± 0.03 | 1.12 ± 0.013 | 1.12 ± 0.026 | 0.828 ± 0.02 | 0.623 ± 0.0072 |
| PCI30 HEADNECK | 0.935 ± 0.034 | 0.947 ± 0.079 | 0.902 ± 0.023 | 0.963 ± 0.1 | 0.716 ± 0.028 | 0.495 ± 0.033 | 0.181 ± 0.004 | 0.151 ± 0.0076 | 0.955 ± 0.089 | 1.07 ± 0.066 | 1.07 ± 0.063 | 1.07 ± 0.082 | 0.83 ± 0.15 | 0.549 ± 0.011 | 0.343 ± 0.014 | 0.29 ± 0.014 |
| RDES SOFT TISSUE | 1.23 ± 0.074 | 1.24 ± 0.12 | 1.13 ± 0.1 | 1.22 ± 0.097 | 1.34 ± 0.055 | 1.03 ± 0.038 | 0.301 ± 0.015 | 0.166 ± 0.021 | 1.26 ± 0.072 | 1.18 ± 0.21 | 1.17 ± 0.094 | 1.24 ± 0.14 | 1.48 ± 0.18 | 1.14 ± 0.29 | 0.453 ± 0.089 | 0.2 ± 0.03 |
| S68 BREAST | 0.953 ± 0.24 | 0.88 ± 0.11 | 0.993 ± 0.2 | 0.845 ± 0.18 | 0.334 ± 0.082 | 0.16 ± 0.02 | 0.0503 ± 0.0051 | 0.034 ± 0.001 | 0.792 ± 0.081 | 1.01 ± 0.26 | 1.07 ± 0.13 | 1.06 ± 0.22 | 0.574 ± 0.13 | 0.273 ± 0.029 | 0.0663 ± 0.0023 | 0.0637 ± 0.0023 |
| SAOS2 BONE | 1.11 ± 0.018 | 1.07 ± 0.016 | 0.98 ± 0.083 | 0.931 ± 0.04 | 0.636 ± 0.018 | 0.52 ± 0.014 | 0.174 ± 0.0087 | 0.0977 ± 0.0011 | 1.18 ± 0.055 | 1.12 ± 0.043 | 1.171 ± 0.01 | 1.23 ± 0.1 | 1.08 ± 0.045 | 0.874 ± 0.0098 | 0.433 ± 0.039 | 0.36 ± 0.014 |
| SCC003 HEADNECK | 1.03 ± 0.13 | 1.04 ± 0.057 | 1.02 ± 0.18 | 1.02 ± 0.036 | 0.879 ± 0.098 | 0.878 ± 0.13 | 0.23 ± 0.034 | 0.206 ± 0.049 | 1.06 ± 0.089 | 1.11 ± 0.036 | 1.08 ± 0.13 | 1.08 ± 0.11 | 0.776 ± 0.12 | 0.717 ± 0.093 | 0.366 ± 0.02 | 0.289 ± 0.04 |
| SCC36 HEADNECK | 1.11 ± 0.012 | 0.988 ± 0.031 | 0.914 ± 0.016 | 1.11 ± 0.056 | 0.807 ± 0.017 | 0.84 ± 0.086 | 0.167 ± 0.024 | 0.143 ± 0.024 | 1 ± 0.15 | 1.05 ± 0.043 | 1.12 ± 0.048 | 1.16 ± 0.074 | 1.11 ± 0.08 | 0.966 ± 0.08 | 0.497 ± 0.022 | 0.352 ± 0.015 |
| SCC47 HEADNECK | 0.983 ± 0.021 | 0.992 ± 0.084 | 0.992 ± 0.027 | 1.01 ± 0.015 | 0.903 ± 0.032 | 0.886 ± 0.019 | 0.371 ± 0.013 | 0.225 ± 0.0095 | 1.07 ± 0.091 | 1.07 ± 0.019 | 1.12 ± 0.019 | 1.11 ± 0.016 | 1.01 ± 0.092 | 0.996 ± 0.085 | 0.326 ± 0.023 | 0.33 ± 0.0059 |
| SCC90 HEADNECK | 0.913 ± 0.076 | 0.916 ± 0.037 | 0.892 ± 0.034 | 0.904 ± 0.15 | 0.674 ± 0.074 | 0.555 ± 0.077 | 0.194 ± 0.025 | 0.222 ± 0.054 | 1.12 ± 0.06 | 1.12 ± 0.14 | 1.11 ± 0.018 | 1.03 ± 0.036 | 0.912 ± 0.066 | 0.722 ± 0.079 | 0.376 ± 0.014 | 0.288 ± 0.0071 |
